Values quoted from earlier work as cited in patent publication US20210369751A1, “BIOLOGICALLY ACTIVE COMPOSITIONS AND METHODS OF USING” (Mediwel Labs, LLC, priority 2020, published 2021).
“Also recorded” adds a separate entry of the source.

Assays:
CD38 = target: T1, CD38 (Homo sapiens, UniProt P28907); conditions: purified pharmaceutical grade flavonoids; competitive antagonists
T1 sequence (P28907 1-300): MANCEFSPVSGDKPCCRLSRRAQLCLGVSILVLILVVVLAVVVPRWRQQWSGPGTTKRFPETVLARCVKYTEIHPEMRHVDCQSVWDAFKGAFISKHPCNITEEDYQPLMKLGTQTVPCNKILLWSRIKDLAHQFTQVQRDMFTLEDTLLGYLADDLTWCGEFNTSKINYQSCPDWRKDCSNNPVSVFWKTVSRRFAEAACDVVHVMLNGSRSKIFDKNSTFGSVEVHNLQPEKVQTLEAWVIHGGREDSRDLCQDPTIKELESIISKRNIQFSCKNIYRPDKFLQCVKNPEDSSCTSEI

[1] = 20 mg piperine daily for seven days before 150 mg theophylline
[2] = propranolol co-administered with 3 mg piperine
[3] = 20 mg piperine daily for seven days before 300 mg phenytoin

## O=c1c(O)c(-c2ccc(O)c(O)c2)oc2cc(O)cc(O)c12 [quercetin]
CD38
  inhibition of CD38 and its catalytic activity: potent inhibition

## O=c1cc(-c2ccc(O)cc2)oc2cc(O)cc(O)c12 [apigenin]
CD38
  inhibition of CD38 and its catalytic activity: potent inhibition

## O=C(/C=C/C=C/c1ccc2c(c1)OCO2)N1CCCCC1 [piperine]
[1]
  elimination rate of theophylline with piperine pretreatment: significantly slowed down
[1]; six healthy volunteers
  maximum concentration of theophylline, pretreated with piperine versus drug alone: 1.5 times
[2]
  elimination rate of propranolol with piperine: did not affect the elimination rate; also recorded: without slowing down the drug elimination rate
  maximum blood concentration / blood levels of propranolol with piperine: increased two fold; also recorded: doubling its blood levels
[3]
  elimination of phenytoin with piperine pretreatment: significantly slower elimination
  maximum concentration of phenytoin with piperine pretreatment: significantly higher concentrations
  time to maximum concentration of phenytoin with piperine pretreatment: shorter time
